The test system of this experiment is growing hens. The experiment in a line: Effect of addition of creatine in the feed for growing hens. The class given is in vivo. The following applies: 0.2% creatine (0.2 g/kg) added to air-dried feed, growing period of 41 days. An excerpt: The effect of addition of creatine in the feed for growing hens was studied. It was found here that by adding 0.2% creatine […] to the air-dried feed for a growing period of 41 days, an increase in the final weight of 4% compared with previous feeding methods (without creatine addition) was achieved. […] The feed consumption decreased here by about 2–3% in comparison with previous feeding methods.

Here are results for 1 compound from patent US7226947B1, “Use of creatine as a fat substitute” (AlzChem Trostberg GmbH, priority 1999, dated 2007).

In the case of `CN(CC(=O)O)C(=N)N` [creatine], the “decrease in feed consumption in comparison with previous feeding methods” value is given as 2–3%; the “increase in the final weight compared with previous feeding methods (without creatine addition)” value came out at 4%; the meat quality result was “improved quality”; the “nature of the increase in weight (meat vs fat; lean body mass index)” value is “only by increase in meat, but not by increase in fat”.
